The test system of one data set is A2780 (ovarian). The note with it: A2780 (ovarian), 4,000 cells/well, treated 72 h, mean ± SD (n = 3). The procedure: (§1) All cell lines (OVCAR8, A2780, H460, and MDA-MB-231) were cultivated in RPMI or DMEM supplemented with 10% FBS, 1% penicillin/streptomycin, and 1% amphotericin. All cells were grown at 310K in a humidified atmosphere containing 5% CO2.
(§2) Various established human ovarian, lung, and breast cancer cell lines were seeded in 96-well plates (4000 cells/well) and were incubated with RPMI 1640 or DMEM (100 μL) supplemented with 10% FBS, 1% penicillin/streptomycin, and 1% amphotericin for 24 h and at 37° C. They were then treated with AuPhos compounds at increasing concentrations for 72 h from stock solutions following serial dilutions, in which AuPhos stock solutions were prepared in DMSO/media mixture (% v/v=20:80). Thereafter, cellular viability was assessed via the established crystal violet colorimetric assay. In brief, cells were fixed with 50 μL of a 1% glutaraldehyde solution and placed in an incubator (37° C., 5% CO2) for 1 hour. The plates were washed with water by running them under a gentle flow of tap water. The plates were air-dried, and crystal violet reagent was added to each well and allowed to incubate at room temperature for 20 min. The plates were washed with water and dried again. Methanol (200 μL/well) was added to each well, and the measurements of absorbance were subsequently performed using a Biotek Synergy H1 Plate Reader at 570 nm (peak absorbance).

For another data set, the system named is H460 (lung). The note with it: H460 (lung), 4,000 cells/well, treated 72 h, mean ± SD (n = 3). The procedure:
as §1, §2

A further data set has as its system OVCAR8 (ovarian). The note with it: OVCAR8 (ovarian), 4,000 cells/well, treated 72 h, mean ± SD (n = 3). The procedure: as §1, §2
Another data set concerns 4T1 tumor. As to the kind of experiment: In vivo comparative experiment of AuPhos-89 and cisplatin, 4T1, IP. Further details: species or system BALB/c mice. The procedure:
Mice were implanted with 2,000,000 4T1 cells subcutaneously on their flanks. […] The control group was injected with a PBS solution containing 1.5% DMSO and 12% Kolliphor. Injection and tumor-size/body-weight measurement was performed three days a week.
Mice organs (heart, lung, liver, kidney, spleen, and tumor) were fixed in freshly prepared paraformaldehyde (4% in PBS), the fixation time was 24 hours. And those processed for paraffin sectioning. The organs sections of 5 μm were stained with H&E staining and used for histological examination of the organs and tumor. A total of 5 sections per tissues (spanning the full depth of the organ) were examined and photographed using a Nikon Eclipse 55i microscope. […]

The test system of data set [1] is 4T1 cells engineered to express RFP. The note with it: 10 mg kg−1 day−1, six treatments, thrice a week, compared with controls. From the text: Murine TNBC 4T1 cells engineered to express RFP were also subcutaneously injected into flanks of immunocompromised mice in the presence of Matrigel.

“Also recorded” adds a separate entry of the source.

The IC50 is the concentration that gives 50% inhibition. Regarding `[Cl-].[Cl][Au-]1([c]2ccccc2-c2ccccn2)[P+](c2ccccc2)(c2ccccc2)c2ccccc2[P+]1(c1ccccc1)c1ccccc1` [AuPhos-89, (2-phenylpyridine)[1,2-Bis(diphenylphosphino)benzene]gold(III) Dichloride], the IC50 with A2780 (ovarian) was 0.34 ± 0.07 µM; in the data set with H460 (lung) it was 0.72 ± 0.16 µM; in the data set with OVCAR8 (ovarian), 1.16 ± 0.04 µM. For the same compound, the “liver metastasis (H&E sections)” value with 4T1 tumor (4T1 tumor-bearing mice, treated versus control) is “can inhibit liver metastasis; also recorded: not visible; also recorded: no palpable metastatic lesions”. Further, the “tumor inhibition compared with the control group” value with 4T1 tumor (AuPhos-89 10 mg kg−1 IP, cisplatin 3 mg kg−1 IP) was “significant tumor inhibition”. The body weight entry in the data set on 4T1 tumor (intraperitoneal administration) is on record as “kept constant”. For the same compound, the survival entry with 4T1 tumor (mouse, in vivo, ip) is listed as “increased rates of survival”. Also, in the data set with 4T1 tumor (six treatments, thrice a week, IP, AuPhos-89 10 mg kg−1, cisplatin 3 mg/kg, versus vehicle control), the tumor volume result was “reduced tumor volume”. Moreover, the tumor growth result in data set [1] was “significant attenuation of growth”.

The values are drawn from patent publication US20230357292A1, “MULTI-COORDINATE GOLD-PHOSPHINE COMPOUNDS AND METHOD OF USE” (University of Kentucky Research Foundation, priority 2020, published 2023).
